Assay results published in PubChem BioAssay AID328 (DTP/NCI, 2004).
Where “and” joins values, the source holds several entries; their conditions need not be identical. Equal values may be shown once. Toxic doses and inconclusive results are not listed. Residues, ends and D or L forms follow the SMILES beside them.

Tested on: BDF1 mice, P388 leukemia ip, median survival T/C
Experiment: NCI In Vivo Anticancer Drug Screen. Data for tumor model P388 Leukemia (intraperitoneal) in B6D2F1 (BDF1) mice
Conditions: endpoint: median survival time, higher = longer survival
In short: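 Steps: implant the tumour, treat one group with compound and another with vehicle, record survival, then divide treated by control.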

[1] = dose: 100.0 mg/kg/injection, schedule: Q01DX001 (ip), vehicle: saline with Tween-80
[2] = dose: 200.0 mg/kg/injection, schedule: Q01DX001 (ip), vehicle: saline with Tween-80
[3] = dose: 50.0 mg/kg/injection, schedule: Q01DX009 (ip), vehicle: Klucel (hydroxypropylcellulose) (HPC)
[4] = dose: 100.0 mg/kg/injection, schedule: Q01DX009 (ip), vehicle: Klucel (hydroxypropylcellulose) (HPC)
[5] = dose: 100.0 mg/kg/injection, schedule: Q04DX003 (ip), vehicle: Klucel (hydroxypropylcellulose) (HPC)
[6] = dose: 50.0 mg/kg/injection, schedule: Q01DX009 (ip), vehicle: other
[7] = dose: 50.0 mg/kg/injection, schedule: Q01DX009 (ip), vehicle: saline
[8] = dose: 100.0 mg/kg/injection, schedule: Q01DX009 (ip), vehicle: saline
[9] = dose: 100.0 mg/kg/injection, schedule: Q04DX003 (ip), vehicle: saline with Tween-80
[10] = dose: 200.0 mg/kg/injection, schedule: Q04DX003 (ip), vehicle: saline with Tween-80

For `CCOc1cc(Cl)c(N)c(Cl)c1`, the T/C [1] was 114 % of control and the T/C [2] was 98 % of control.
In the case of `CCC[CH2][Sn]([I])([CH2]I)[CH2]CCC`, the T/C (dose: 1.56 mg/kg/injection, schedule: Q01DX009 (ip), vehicle: saline with Tween-80) is reported as 102 % of control, the T/C (dose: 3.12 mg/kg/injection, schedule: Q01DX009 (ip), vehicle: saline with Tween-80) is reported as 106 % of control and the T/C (dose: 6.25 mg/kg/injection, schedule: Q01DX009 (ip), vehicle: saline with Tween-80) is reported as 123 % of control.
`CC(C)CC(C(N)=O)c1ccccc1` (stereo not drawn) was tested, and the T/C [1] was 100 % of control and the T/C [2] was 104 % of control.
For `[Na+]`, the T/C (dose: 3.0 mg/kg/injection, schedule: Q01DX009 (ip), vehicle: saline) was 104 % of control, the T/C (dose: 6.0 mg/kg/injection, schedule: Q01DX009 (ip), vehicle: saline) was 95 % of control and the T/C (dose: 12.0 mg/kg/injection, schedule: Q01DX009 (ip), vehicle: saline) was 104 % of control. For the same molecule, the T/C (dose: 12.5 mg/kg/injection, schedule: Q04DX003 (ip), vehicle: saline) was 109 % of control and the T/C (dose: 25.0 mg/kg/injection, schedule: Q04DX003 (ip), vehicle: saline) was 95 % of control.
For `Cc1ccc(S(=O)(=O)N(C)c2ccc(C(=O)O)cc2F)cc1`, the T/C (dose: 75.0 mg/kg/injection, schedule: Q04DX003 (ip), vehicle: saline) was 100 % of control, the T/C (dose: 150.0 mg/kg/injection, schedule: Q04DX003 (ip), vehicle: saline) was 104 % of control and the T/C (dose: 300.0 mg/kg/injection, schedule: Q04DX003 (ip), vehicle: saline) was 100 % of control.
With `CCCCOc1ccc(OCCCCCCCCCC[N+](C)(C)C)cc1` the T/C (dose: 3.13 mg/kg/injection, schedule: Q01DX009 (ip), vehicle: Klucel (hydroxypropylcellulose) (HPC)) was 112 % of control, the T/C (dose: 6.25 mg/kg/injection, schedule: Q01DX009 (ip), vehicle: Klucel (hydroxypropylcellulose) (HPC)) was 106 % of control and the T/C (dose: 12.5 mg/kg/injection, schedule: Q01DX009 (ip), vehicle: Klucel (hydroxypropylcellulose) (HPC)) was 105 % of control.
With `C=CCN(CC=C)C(=O)CCN1CC1` the T/C (dose: 1.25 mg/kg/injection, schedule: Q01DX009 (ip), vehicle: saline) was 95 % of control, the T/C (dose: 2.5 mg/kg/injection, schedule: Q01DX009 (ip), vehicle: saline) was 100 % of control and the T/C (dose: 5.0 mg/kg/injection, schedule: Q01DX009 (ip), vehicle: saline) was 112 % of control.
For `CCCCCCCCCCNCCS`, the T/C (dose: 8.0 mg/kg/injection, schedule: Q01DX010 (ip), vehicle: carboxymethylcellulose (CMC)) was 105 % of control, the T/C (dose: 16.0 mg/kg/injection, schedule: Q01DX010 (ip), vehicle: carboxymethylcellulose (CMC)) was 110 % of control and the T/C (dose: 32.0 mg/kg/injection, schedule: Q01DX010 (ip), vehicle: carboxymethylcellulose (CMC)) was 105 % of control.
With `CCOC(=O)N(C)c1ccccc1` the T/C (dose: 25.0 mg/kg/injection, schedule: Q01DX009 (ip), vehicle: Klucel (hydroxypropylcellulose) (HPC)) was 95 % of control, the T/C (dose: 25.0 mg/kg/injection, schedule: Q04DX003 (ip), vehicle: Klucel (hydroxypropylcellulose) (HPC)) was 92 % of control and the T/C [3] was 91 % of control. For the same molecule, the T/C (dose: 50.0 mg/kg/injection, schedule: Q04DX003 (ip), vehicle: Klucel (hydroxypropylcellulose) (HPC)) was 96 % of control, the T/C [4] was 87 % of control and the T/C [5] was 92 % of control.
With `C=C1C(=O)O[C@H]2C1[C@H](OC(=O)/C(C)=C\COC(C)=O)C[C@]1(CO1)[C@@H]1[C@H](O)[C@H]3O[C@@]3(C)[C@@H]12` (stereo partly drawn) the T/C (dose: 3.12 mg/kg/injection, schedule: Q01DX009 (ip), vehicle: other) was 103 % of control, the T/C (dose: 6.25 mg/kg/injection, schedule: Q01DX009 (ip), vehicle: other) was 96 % of control and 120 % of control and the T/C (dose: 12.5 mg/kg/injection, schedule: Q01DX009 (ip), vehicle: other) was 101 % of control. For the same molecule, the T/C [6] was 173 % of control.
`C=CCCCCCCCCCCCCCCCC` (tested in a mixture with another compound) was tested, and the T/C [6] was 113 % of control.
With `N/C(=N\O)c1cccnc1` the T/C (dose: 12.5 mg/kg/injection, schedule: Q01DX009 (ip), vehicle: water) was 109 % of control, the T/C (dose: 25.0 mg/kg/injection, schedule: Q01DX009 (ip), vehicle: water) was 102 % of control and the T/C (dose: 50.0 mg/kg/injection, schedule: Q01DX009 (ip), vehicle: water) was 102 % of control. For the same molecule, the T/C (dose: 50.0 mg/kg/injection, schedule: Q04DX003 (ip), vehicle: water) was 101 % of control and 102 % of control, the T/C (dose: 100.0 mg/kg/injection, schedule: Q01DX009 (ip), vehicle: water) was 102 % of control and the T/C (dose: 100.0 mg/kg/injection, schedule: Q04DX003 (ip), vehicle: water) was 87 % of control and 105 % of control. The T/C (dose: 200.0 mg/kg/injection, schedule: Q01DX009 (ip), vehicle: water) was 107 % of control, the T/C (dose: 200.0 mg/kg/injection, schedule: Q04DX003 (ip), vehicle: water) was 100 % of control and 107 % of control and the T/C (dose: 300.0 mg/kg/injection, schedule: Q04DX003 (ip), vehicle: water) was 108 % of control. The T/C (dose: 400.0 mg/kg/injection, schedule: Q01DX009 (ip), vehicle: water) was 107 % of control.
In the case of `COc1cc(N)ccc1C(=O)O`, the T/C (dose: 0.39 mg/kg/injection, schedule: Q01DX009 (ip), vehicle: saline) is reported as 103 % of control, the T/C (dose: 0.78 mg/kg/injection, schedule: Q01DX009 (ip), vehicle: saline) is reported as 99 % of control and the T/C (dose: 3.12 mg/kg/injection, schedule: Q01DX009 (ip), vehicle: saline) is reported as 115 % of control. The T/C [7] was 95 % of control, the T/C [8] was 101 % of control and the T/C (dose: 200.0 mg/kg/injection, schedule: Q01DX009 (ip), vehicle: saline) was 96 % of control. The T/C (dose: 400.0 mg/kg/injection, schedule: Q01DX009 (ip), vehicle: saline) was 104 % of control.
For `CC(C)=C=CCN(C)Cc1ccccc1`, the T/C [7] was 99 % of control and the T/C [8] was 103 % of control.
`O[C@]12CC=CC[C@]1(O)CC(N1CCCCC1)C2` was tested, and the T/C (dose: 25.0 mg/kg/injection, schedule: Q01DX009 (ip), vehicle: saline) was 99 % of control, the T/C [7] was 124 % of control and the T/C [8] was 92 % of control.
For `CCCCCC(C[N+](C)(C)C)C(=O)/C=C/c1ccc(Cl)cc1` (stereo not drawn), the T/C (dose: 6.25 mg/kg/injection, schedule: Q01DX001 (ip), vehicle: Klucel (hydroxypropylcellulose) (HPC)) was 113 % of control, the T/C (dose: 12.5 mg/kg/injection, schedule: Q01DX001 (ip), vehicle: Klucel (hydroxypropylcellulose) (HPC)) was 100 % of control and the T/C (dose: 25.0 mg/kg/injection, schedule: Q01DX001 (ip), vehicle: Klucel (hydroxypropylcellulose) (HPC)) was 101 % of control. The T/C (dose: 50.0 mg/kg/injection, schedule: Q01DX001 (ip), vehicle: Klucel (hydroxypropylcellulose) (HPC)) was 88 % of control.
With `C=CCSc1nc(N)nc2nc[nH]c12` the T/C (dose: 100.0 mg/kg/injection, schedule: Q01DX009 (ip), vehicle: saline sonified) was 110 % of control, the T/C [9] was 104 % of control and the T/C [10] was 100 % of control. The T/C (dose: 400.0 mg/kg/injection, schedule: Q04DX003 (ip), vehicle: saline with Tween-80) was 109 % of control.
`CC(=O)NC(C)C(=O)NC(C)C(=O)NC(C)C(=O)NC(C)C(=O)O` (stereo not drawn) (Ac-AAAA-OH; configuration not given here) was tested, and the T/C (dose: 50.0 mg/kg/injection, schedule: Q01DX005 (ip), vehicle: saline with Tween-80) was 98 % of control and the T/C (dose: 100.0 mg/kg/injection, schedule: Q01DX005 (ip), vehicle: saline with Tween-80) was 95 % of control.
`CCOC(=O)C(=Cc1ccc(C=C(C(=O)OCC)C(=O)OCC)cc1)C(=O)OCC` was tested, and the T/C [3] was 110 % of control, the T/C [4] was 105 % of control and the T/C [5] was 91 % of control. For the same molecule, the T/C (dose: 200.0 mg/kg/injection, schedule: Q01DX009 (ip), vehicle: Klucel (hydroxypropylcellulose) (HPC)) was 95 % of control and the T/C (dose: 200.0 mg/kg/injection, schedule: Q04DX003 (ip), vehicle: Klucel (hydroxypropylcellulose) (HPC)) was 91 % of control.
For `CSc1ccc(OC(=O)Nc2ccccc2F)cc1`, the T/C (dose: 50.0 mg/kg/injection, schedule: Q04DX003 (ip), vehicle: saline with Tween-80) was 90 % of control, the T/C [9] was 100 % of control and the T/C [10] was 109 % of control.
In the case of `Nc1nc(N)c(N=Cc2ccccc2)c(=O)[nH]1`, the T/C [1] is reported as 108 % of control, the T/C [2] is reported as 88 % of control and the T/C (dose: 400.0 mg/kg/injection, schedule: Q01DX001 (ip), vehicle: saline with Tween-80) is reported as 97 % of control.
